Laboratory results from the supplement of paper PMC13380429.

Tests used:
Settings in all cases: 72 h
HepG2 [1] = assay: cell viability relative to DMSO; higher = less toxic
Calu-3 [2] = assay: as above
Caco-2 [3] = assay: as above
U2OS [4] = assay: as above
Vero E6 [5] = assay: as above
HepG2 [6] = assay: relative viability EC50 (midpoint between 100% and the lowest measured viability); higher = less toxic
Calu-3 [7] = assay: as above
Caco-2 [8] = assay: as above
U2OS [9] = assay: as above
Vero E6 [10] = assay: as above
HepG2 [11] = assay: drug sensitivity score (DSS) for viability; higher = more toxic; extreme values may be limits of the assay
Calu-3 [12] = assay: as above
Caco-2 [13] = assay: as above
U2OS [14] = assay: as above
Vero E6 [15] = assay: as above

SMILES | cell viability (HepG2 [1]; 1 nM) [%] | cell viability (HepG2 [1]; 10 nM) [%] | cell viability (HepG2 [1]; 100 nM) [%] | cell viability (HepG2 [1]; 1000 nM) [%] | cell viability (HepG2 [1]; 10000 nM) [%] | cell viability (Calu-3 [2]; 1 nM) [%] | cell viability (Calu-3 [2]; 10 nM) [%] | cell viability (Calu-3 [2]; 100 nM) [%] | cell viability (Calu-3 [2]; 1000 nM) [%] | cell viability (Calu-3 [2]; 10000 nM) [%] | cell viability (Caco-2 [3]; 1 nM) [%] | cell viability (Caco-2 [3]; 10 nM) [%] | cell viability (Caco-2 [3]; 100 nM) [%] | cell viability (Caco-2 [3]; 1000 nM) [%] | cell viability (Caco-2 [3]; 10000 nM) [%] | cell viability (U2OS [4]; 1 nM) [%] | cell viability (U2OS [4]; 10 nM) [%] | cell viability (U2OS [4]; 100 nM) [%] | cell viability (U2OS [4]; 1000 nM) [%] | cell viability (U2OS [4]; 10000 nM) [%] | cell viability (Vero E6 [5]; 1 nM) [%] | cell viability (Vero E6 [5]; 10 nM) [%] | cell viability (Vero E6 [5]; 100 nM) [%] | cell viability (Vero E6 [5]; 1000 nM) [%] | cell viability (Vero E6 [5]; 10000 nM) [%] | relative viability EC50 (HepG2 [6]) [µM] | relative viability EC50 (Calu-3 [7]) [µM] | relative viability EC50 (Caco-2 [8]) [µM] | relative viability EC50 (U2OS [9]) [µM] | relative viability EC50 (Vero E6 [10]) [µM] | drug sensitivity score (HepG2 [11]) | drug sensitivity score (Calu-3 [12]) | drug sensitivity score (Caco-2 [13]) | drug sensitivity score (U2OS [14]) | drug sensitivity score (Vero E6 [15])
CCCCOc1cc(CC2CNC(=O)N2)ccc1OC (stereo not given) [Ro-20-1724] | 101 | 91.6 | 105 | 91.1 | 89.5 | 97.1 | 105 | 104 | 108 | 96.8 | 97.3 | 96.8 | 102 | 103 | 110 | 96.3 | 102 | 95.2 | 107 | 102 | 95.4 | 94.8 | 101 | 95.1 | 99.1 | > 10 | > 10 | > 10 | > 10 | > 10 | 0.1 | 0 | 0 | 0 | 0
N[C@@H](CCC(=O)N[C@@H](CSN=O)C(=O)NCC(=O)O)C(=O)O [S-nitrosoglutathione] | 102 | 98.4 | 108 | 91.7 | 99 | 94 | 99.2 | 93.9 | 108 | 108 | 101 | 98.2 | 96.3 | 87.9 | 99.9 | 98 | 97.6 | 92.9 | 98.3 | 101 | 93.6 | 97.2 | 95.2 | 95.2 | 101 | > 10 | > 10 | > 10 | > 10 | > 10 | 0 | 0 | 0 | 0 | 0
COc1ccc(CCNCc2ccc(OCc3ccc(Cl)nc3)c(OC)c2)cc1OC [SBE-13] | 107 | 105 | 102 | 96.1 | 94 | 108 | 97.8 | 93.3 | 99.1 | 93.8 | 90.3 | 94.3 | 92.1 | 98.2 | 95.3 | 98 | 103 | 102 | 98.8 | 95.2 | 107 | 104 | 101 | 98.5 | 97.3 | > 10 | > 10 | > 10 | > 10 | > 10 | 0 | 0 | 0 | 0 | 0
